ChEMBL document CHEMBL5537197, “Discovery of Novel Coumarin-quinolinium Derivatives as Pan-KRAS Translation Inhibitors by Targeting 5'-UTR RNA G-Quadruplexes” (J Med Chem, 2024)
The source made the active and inactive calls. The calls are words filed in the database; no cut-off is given here.

Assays:
MIA PaCa-2 = assay: Cytotoxicity against human MIA PaCa-2 cells harboring KRAS G12C mutant assessed as cell growth inhibition incubated for 24 hrs by MTT assay; format: functional, cell-based; details: MIA PaCa-2, 24 h
PANC-1 = assay: Cytotoxicity against human PANC-1 cells harboring KRAS G12D mutant assessed as cell growth inhibition incubated for 24 hrs by MTT assay; format: functional, cell-based; details: PANC-1, 24 h
[1] = Cytotoxicity against human PANC-1 cells […] assessed as cell growth inhibition incubated for 24 hrs by MTT assay; format: functional, cell-based; details: PANC-1, 24 h
NCM460 = assay: Cytotoxicity against human NCM460 cells harboring wild-type KRAS assessed as cell growth inhibition incubated for 24 hrs by MTT assay; format: functional, cell-based; details: NCM460, 24 h
[2] = molecular target: GTPase KRas (Homo sapiens) (UniProt P01116); assay: Inhibition of KRAS in human MIA PaCa-2 cells at 2.5 uM incubated for 24 hrs by Western blot analysis; format: cell-based
Sequence of GTPase KRas (Homo sapiens) (P01116 whole entry, looked up): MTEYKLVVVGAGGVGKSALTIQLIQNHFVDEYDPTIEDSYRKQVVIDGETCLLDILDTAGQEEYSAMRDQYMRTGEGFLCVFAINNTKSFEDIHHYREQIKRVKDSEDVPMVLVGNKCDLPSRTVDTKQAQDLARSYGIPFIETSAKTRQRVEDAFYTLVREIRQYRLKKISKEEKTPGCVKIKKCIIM

[3] = molecular target: GTPase KRas (Homo sapiens) (UniProt P01116); assay: Inhibition of KRAS in human PANC-1 cells at 2.5 uM incubated for 24 hrs by Western blot analysis; format: cell-based

Row | inhibition [2] | inhibition [3] | Structure (SMILES) | IC50 (MIA PaCa-2) | IC50 (PANC-1) | IC50 [1] | IC50 (NCM460)
1 |  |  | CCN(CC)c1ccc2cc(/C=C/c3ccc4cc(F)c(N5CCN(Cc6cn(CCC(=O)O)nn6)CC5)cc4[n+]3C)c(=O)oc2c1 | 12.6 µM | > 40 µM | > 40 µM | > 40 µM
2 |  |  | CCN(CC)c1ccc2cc(/C=C/c3ccc4cc(F)c(N5CCOCC5)cc4[n+]3C)c(=O)oc2c1 | 29.6 µM | 13.2 µM | > 40 µM | > 40 µM
3 |  |  | CCN(CC)c1ccc2cc(/C=C/c3ccc4cc(F)c(NCC5CCOCC5)cc4[n+]3C)c(=O)oc2c1 | 10.8 µM | 32.4 µM | 11.3 µM | > 40 µM
4 |  |  | CCN(CC)c1ccc2cc(/C=C/c3cc(N4CCN(C)CC4)c4cc(F)c(NCc5cn(CCc6cccs6)nn5)cc4[n+]3C)c(=O)oc2c1 | 9 µM | 19.2 µM | > 40 µM | > 40 µM
5 |  |  | CCN(CC)c1ccc2cc(/C=C/c3ccc4cc(F)c(N5CCN(C(=O)C(C)C)CC5)cc4[n+]3C)c(=O)oc2c1 | 3.4 µM | 39.6 µM | > 40 µM | > 40 µM
6 | Active | Active | CCN(CC)CCCNc1cc2c(ccc(/C=C/c3cc4ccc(N(CC)CC)cc4oc3=O)[n+]2C)cc1F | 7.7 µM | 7.2 µM | > 40 µM | > 40 µM
7 |  |  | CCN(CC)c1ccc2cc(/C=C/c3ccc4cc(F)c(NCCO)cc4[n+]3C)c(=O)oc2c1 | 7.2 µM | 38.2 µM | > 40 µM | > 40 µM
8 |  |  | CCN(CC)c1ccc2cc(/C=C/c3cc(N4CCN(C)CC4)c4cc(F)c(NCc5cn(CCCN6CCOCC6)nn5)cc4[n+]3C)c(=O)oc2c1 | > 40 µM | > 40 µM | > 40 µM | > 40 µM
9 |  |  | CCN(CC)c1ccc2cc(/C=C/c3cc(NCCCN4CCCC4)c4cc(F)c(NCCCN5CCCC5)cc4[n+]3C)c(=O)oc2c1 | > 40 µM | > 40 µM | > 40 µM | > 40 µM
10 |  |  | CCN(CC)c1ccc2cc(/C=C/c3cc(N4CCN(C)CC4)c4cc(F)c(NCc5cn(CCCN(C)C)nn5)cc4[n+]3C)c(=O)oc2c1 | > 40 µM | 35.2 µM | > 40 µM | > 40 µM
11 |  |  | CCN(CC)c1ccc2cc(/C=C/c3ccc4cc(F)c(NCc5ccccc5C)cc4[n+]3C)c(=O)oc2c1 | < 1.3 µM | 5.9 µM | 4.6 µM | 18.7 µM
12 | Active | Active | CCN(CC)c1ccc2cc(/C=C/c3cc(N4CCCN(C)CC4)c4cc(F)c(N5CCCN(C)CC5)cc4[n+]3C)c(=O)oc2c1 | 10 µM | 11.5 µM | > 40 µM | > 40 µM
13 |  |  | CCN(CC)c1ccc2cc(/C=C/c3cc(N4CCN(C)CC4)c4cc(F)c(NCc5cn([C@@H]6O[C@H](CO)[C@@H](O)[C@H](O)[C@H]6O)nn5)cc4[n+]3C)c(=O)oc2c1 | > 40 µM | > 40 µM | > 40 µM | > 40 µM
14 |  |  | CCN(CC)c1ccc2cc(/C=C/c3cc(NCCCN4CCOCC4)c4cc(F)c(NCCCN5CCOCC5)cc4[n+]3C)c(=O)oc2c1 | 4.6 µM | 29 µM | > 40 µM | > 40 µM
15 |  |  | CCN(CC)c1ccc2cc(/C=C/c3ccc4cc(F)c(N5CCN(C(C)=O)CC5)cc4[n+]3C)c(=O)oc2c1 | 5.6 µM | 32.6 µM | > 40 µM | > 40 µM
16 |  |  | CCN(CC)c1ccc2cc(/C=C/c3cc(N4CCN(C)CC4)c4cc(F)c(NCc5cn(CCCN6CCCCC6)nn5)cc4[n+]3C)c(=O)oc2c1 | > 40 µM | > 40 µM | > 40 µM | > 40 µM
17 |  |  | CCN(CC)c1ccc2cc(/C=C/c3cc(NCCCn4ccnc4)c4cc(F)c(NCCCn5ccnc5)cc4[n+]3C)c(=O)oc2c1 | 33.2 µM | > 40 µM | > 40 µM | > 40 µM
18 |  |  | CCN(CC)c1ccc2cc(/C=C/c3ccc4cc(F)c(N5CCN(Cc6cn(CCCN7CCCC7)nn6)CC5)cc4[n+]3C)c(=O)oc2c1 | > 40 µM | 19.8 µM | 13 µM | > 40 µM
19 |  |  | CCN(CC)c1ccc2cc(/C=C/c3ccc4cc(F)c(N5CCN(Cc6cn(CCCN7CCCCC7)nn6)CC5)cc4[n+]3C)c(=O)oc2c1 | 26.8 µM | > 40 µM | > 40 µM | > 40 µM
20 |  |  | CCN(CC)c1ccc2cc(/C=C/c3ccc4cc(F)c(NCc5ccccc5C(F)(F)F)cc4[n+]3C)c(=O)oc2c1 | < 1.3 µM | 7 µM | 3 µM | 12.2 µM
21 |  |  | CCN(CC)c1ccc2cc(/C=C/c3ccc4cc(F)c(NCCc5cccs5)cc4[n+]3C)c(=O)oc2c1 | < 1.3 µM | < 1.3 µM | < 1.3 µM | 4.4 µM
22 |  |  | CCN(CC)c1ccc(Nc2cc3c(ccc(/C=C/c4cc5ccc(N(CC)CC)cc5oc4=O)[n+]3C)cc2F)cc1 | < 13 µM | < 1.3 µM | < 1.3 µM | < 1.3 µM
